According to patent US20250215039A1, “NUCLEOSIDES FOR TREATING CANCER” (PRIMEFOUR THERAPEUTICS, INC., priority 2022, published 2025):
pIC50: −log10 of the molar value. Read-outs that look alike come from different tables or passages of the source.

Assays:
cancer cell lines = test: Cancer cell proliferation activity (CellTiterGlo, 72 h); format: cell-based; conditions: 72 h, 72 h, read-out: IC50 cell proliferation
Summary of the method: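 Readout is CellTiterGlo luminescence after 72 h compound exposure (0.1% DMSO final), started one day post-seeding, at 37 °C.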

[1] = molecular target: human cytidine deaminase (CDA) (Homo sapiens, UniProt P32320); test: Metabolism by human cytidine deaminase (CDA), substrate absorbance at 290 nm
human cytidine deaminase (CDA), sequence (P32320 whole entry): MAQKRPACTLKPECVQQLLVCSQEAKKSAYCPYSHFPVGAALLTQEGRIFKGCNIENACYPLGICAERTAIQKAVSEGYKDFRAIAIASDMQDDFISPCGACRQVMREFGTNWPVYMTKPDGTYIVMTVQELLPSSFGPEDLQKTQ
Protocol: Transfer 7.2 μl of each of the substrate DMSO stock in step 2 into a 500 μl 96-Well V-bottom Microplate, clear SBS footprint, cat #P-96-450V-C
Add 352.8 μl assay buffer to the wells
For deaminated product compounds mix 4 μl product with 196 μl assay buffer
This was incubated at 37° C. for 1 h. 200 μl of this mixture was transferred into the assay plate to serve as the product control.
Product+buffer: mix 80 ul of the 2.5× intermediate product stocks (from step 3) with 120 ul assay buffer into product control (no enzyme) wells
Incubate the plate alongside the 20 nM CDA enzyme intermediate stock at 37° C. to temperature equilibrate reagents
Add 120 μl of the 20 nM enzyme mix into the Substrate+CDA wells and start reading at 290 nm every 30 s for about 60 min
50 and 200 uM substrate and product
In 100 mM Tris, pH 7.5, 100 mM KCl, 0.8% carryover DMSO
5 min incubation at 37° C.
Absorbance at 290 nm every 30 s at 37° C. for 1 h using FlexStation 3
Convert A290 to concentration of substrate remaining at time t after enzyme addition:
[formula] • where: • St=absorbance reading of: substrate+CDA wells at time t • So=Average absorbance reading of: substrate+buffer wells • Po=Average absorbance reading of: product+buffer wells • [S]t=initial substrate concentration • Use GraphPad to plot [substrate] against time to calculate initial velocity or slope (μMs^−1) i.e. the linear range of each curve • Express rate in s^−1 by dividing initial velocity by the total enzyme concentration.
Plot rate against [substrate] and fit data to standard Michaelis Menten equation to obtain kcat and KM parameters.

C[C@]1(CO)O[C@@H](n2ccc(N)nc2=O)C(F)(F)[C@@H]1O [Cpd. No. 190, 4-amino-1-((2R,4R,5R)-3,3-difluoro-4-hydroxy-5-(hydroxymethyl)-5-methyltetrahydrofuran-2-yl)pyrimidin-2(1H)-one]
pIC50 (cancer cell lines; 5637 (bladder)): 5.41
pIC50 (cancer cell lines; CLS439 (bladder)): < 4.30
pIC50 (cancer cell lines; HS729 (muscle)): 5.32
pIC50 (cancer cell lines; J82 (bladder)): < 4.30
pIC50 (cancer cell lines; JAR (placenta)): < 4.30
pIC50 (cancer cell lines; MT3 (breast)): 5.97
pIC50 (cancer cell lines; PANCI (pancreas)): < 4.30
pIC50 (cancer cell lines; PC3 (prostate)): 5.84
pIC50 (cancer cell lines; RD (muscle)): < 4.30
pIC50 (cancer cell lines; T24 (bladder)): 5.49
pIC50 (cancer cell lines; Homo sapiens, 22Rv1, 72 h, 22RV1 (prostate)): < 4.30
pIC50 (cancer cell lines; Homo sapiens, 786-0, 72 h, 786O (kidney)): < 4.30
pIC50 (cancer cell lines; Homo sapiens, A204, 72 h, A204 (muscle)): 6.77
pIC50 (cancer cell lines; Homo sapiens, A549, 72 h, A549 (lung)): 5.54
pIC50 (cancer cell lines; Homo sapiens, A673, 72 h, A673 (bone)): < 4.30
pIC50 (cancer cell lines; Homo sapiens, A2780, 72 h, A2780 (ovary)): 5.27
pIC50 (cancer cell lines; Homo sapiens, A-375, 72 h, A375 (skin)): < 4.30
pIC50 (cancer cell lines; Homo sapiens, A-431, 72 h, A431 (skin)): 5.42
pIC50 (cancer cell lines; Homo sapiens, ACHN, ACHN (kidney)): 5.55
pIC50 (cancer cell lines; Homo sapiens, ASPC1, 72 h, ASPC1 (pancreas)): < 4.30
pIC50 (cancer cell lines; Homo sapiens, BT-20, 72 h, BT20 (breast)): < 4.30
pIC50 (cancer cell lines; Homo sapiens, BXPC-3, 72 h, BXPC3 (pancreas)): < 4.30
pIC50 (cancer cell lines; Homo sapiens, C-33-A, C33A (endometrial)): 5.68
pIC50 (cancer cell lines; Homo sapiens, CAKI-1, 72 h, CAKI1 (kidney)): 5.97
pIC50 (cancer cell lines; Homo sapiens, COLO 205, 72 h, COLO205 (colon)): 5.52
pIC50 (cancer cell lines; Homo sapiens, COLO-678, 72 h, COLO678 (colon)): < 4.30
pIC50 (cancer cell lines; Homo sapiens, Ca-Ski, CASKI (endometrial)): < 4.30
pIC50 (cancer cell lines; Homo sapiens, Caco-2, 72 h, CACO2 (colon)): < 4.30
pIC50 (cancer cell lines; Homo sapiens, Calu-6, 72 h, CALU6 (lung)): 5.28
pIC50 (cancer cell lines; Homo sapiens, DLD-1, 72 h, DLD1 (colon)): < 4.30
pIC50 (cancer cell lines; Homo sapiens, DU-145, 72 h, DU145 (prostate)): 5.50
pIC50 (cancer cell lines; Homo sapiens, EFO-21, 72 h, EFO21 (ovary)): < 4.30
pIC50 (cancer cell lines; Homo sapiens, EJ-28, 72 h, EJ28 (bladder)): < 4.30
pIC50 (cancer cell lines; Homo sapiens, Granta-519, 72 h, GRANTA-519 (hematological)): 5.91
pIC50 (cancer cell lines; Homo sapiens, HCT-15, 72 h, HCT15 (colon)): 5.51
pIC50 (cancer cell lines; Homo sapiens, HCT-116, 72 h, HCT116 (colon)): 5.48
pIC50 (cancer cell lines; Homo sapiens, HEK293, 72 h, HEK293 (kidney)): < 4.30
pIC50 (cancer cell lines; Homo sapiens, HL-60, 72 h, HL-60 (hematological)): < 4.30
pIC50 (cancer cell lines; Homo sapiens, HT-29, 72 h, HT29 (colon)): < 4.30
pIC50 (cancer cell lines; Homo sapiens, HT-1080, 72 h, HT1080 (connective tissue)): 5.33
pIC50 (cancer cell lines; Homo sapiens, HeLa, HELA (endometrial)): < 4.30
pIC50 (cancer cell lines; Homo sapiens, HepG2, 72 h, HEPG2 (liver)): < 4.30
pIC50 (cancer cell lines; Homo sapiens, Hs-578T, HS578T (breast)): < 4.30
pIC50 (cancer cell lines; Homo sapiens, IGROV-1, 72 h, IGROV1 (ovary)): 5.37
pIC50 (cancer cell lines; Homo sapiens, IMR-90, 72 h, IMR90 (lung)): < 4.30
pIC50 (cancer cell lines; Homo sapiens, JEG-3, 72 h, JEG3 (placenta)): < 4.30
pIC50 (cancer cell lines; Homo sapiens, JIMT-1, 72 h, JIMT1 (breast)): 5.65
pIC50 (cancer cell lines; Homo sapiens, K562, 72 h, K-562 (hematological)): < 4.30
pIC50 (cancer cell lines; Homo sapiens, Kasumi 1, 72 h, KASUMI-1 (hematological)): 5.65
pIC50 (cancer cell lines; Homo sapiens, L-363, 72 h, L-363 (hematological)): < 4.30
pIC50 (cancer cell lines; Homo sapiens, LoVo, LOVO (colon)): 5.56
pIC50 (cancer cell lines; Homo sapiens, MCF7, 72 h, MCF7 (breast)): < 4.30
pIC50 (cancer cell lines; Homo sapiens, MDA-MB-231, 72 h, MDAMB231 (breast)): 5.65
pIC50 (cancer cell lines; Homo sapiens, MDA-MB-435, 72 h, MDAMB435 (skin)): 5.33
pIC50 (cancer cell lines; Homo sapiens, MDA-MB-436, 72 h, MDAMB436 (breast)): < 4.30
pIC50 (cancer cell lines; Homo sapiens, MDA-MB-468, 72 h, MDAMB468 (breast)): < 4.30
pIC50 (cancer cell lines; Homo sapiens, MG-63, 72 h, MG63 (bone)): < 4.30
pIC50 (cancer cell lines; Homo sapiens, MHH-ES-1, 72 h, MHHES1 (bone)): < 4.30
pIC50 (cancer cell lines; Homo sapiens, MIA PaCa-2, 72 h, MIAPACA2 (pancreas)): < 4.30
pIC50 (cancer cell lines; Homo sapiens, MINO, MINO (hematological)): 6.37
pIC50 (cancer cell lines; Homo sapiens, MV4-11, 72 h, MV4-11 (hematological)): 5.42
pIC50 (cancer cell lines; Homo sapiens, NCI-H23, 72 h, NCI-H23 (lung)): < 4.30
pIC50 (cancer cell lines; Homo sapiens, NCI-H82, 72 h, NCIH82 (lung)): < 4.30
pIC50 (cancer cell lines; Homo sapiens, NCI-H292, 72 h, NCIH292 (lung)): < 4.30
pIC50 (cancer cell lines; Homo sapiens, NCI-H460, 72 h, NCIH460 (lung)): 5.25
pIC50 (cancer cell lines; Homo sapiens, OVCAR-3, 72 h, OVCAR3 (ovary)): 5.59
pIC50 (cancer cell lines; Homo sapiens, OVCAR-4, 72 h, OVCAR4 (ovary)): < 4.30
pIC50 (cancer cell lines; Homo sapiens, PLC-PRF-5, 72 h, PLCPRF5 (liver)): < 4.30
pIC50 (cancer cell lines; Homo sapiens, Panc1005, 72 h, PANC1005 (pancreas)): < 4.30
pIC50 (cancer cell lines; Homo sapiens, Ramos, RAMOS (hematological)): 5.57
pIC50 (cancer cell lines; Homo sapiens, SAOS-2, 72 h, SAOS2 (bone)): 5.83
pIC50 (cancer cell lines; Homo sapiens, SF-268, 72 h, SF268 (brain)): 5.42
pIC50 (cancer cell lines; Homo sapiens, SF-295, 72 h, SF295 (brain)): < 4.30
pIC50 (cancer cell lines; Homo sapiens, SK-BR-3, 72 h, SKBR3 (breast)): 5.34
pIC50 (cancer cell lines; Homo sapiens, SK-HEP1, 72 h, SKHEP1 (liver)): 5.60
pIC50 (cancer cell lines; Homo sapiens, SK-LMS-1, 72 h, SKLMS1 (uterus)): < 4.30
pIC50 (cancer cell lines; Homo sapiens, SK-MEL-5, 72 h, SKMEL5 (skin; SKMELS [sic] in Table 9E)): < 4.30
pIC50 (cancer cell lines; Homo sapiens, SK-MEL-28, 72 h, SKMEL28 (skin)): < 4.30
pIC50 (cancer cell lines; Homo sapiens, SK-N-AS, SKNAS (brain)): < 4.30
pIC50 (cancer cell lines; Homo sapiens, SK-N-SH, SKNSH (brain)): < 4.30
pIC50 (cancer cell lines; Homo sapiens, SK-OV-3, 72 h, SKOV3 (ovary)): < 4.30
pIC50 (cancer cell lines; Homo sapiens, SNB-75, 72 h, SNB75 (brain)): < 4.30
pIC50 (cancer cell lines; Homo sapiens, SU-DHL10, 72 h, SU-DHL-10 (hematological)): 5.56
pIC50 (cancer cell lines; Homo sapiens, SU-DHL-6, 72 h, SU-DHL-6 (hematological)): 5.54
pIC50 (cancer cell lines; Homo sapiens, SW-620, 72 h, SW620 (colon)): 5.34
pIC50 (cancer cell lines; Homo sapiens, TE-671, 72 h, TE671 (muscle)): < 4.30
pIC50 (cancer cell lines; Homo sapiens, THP-1, 72 h, THP-1 (hematological)): 5.46
pIC50 (cancer cell lines; Homo sapiens, U2OS, U20S (bone; U2OS in Table 9E)): < 4.30
pIC50 (cancer cell lines; Homo sapiens, U-87 MG, U87MG (brain)): 5.54
pIC50 (cancer cell lines; Homo sapiens, UMUC3, 72 h, UMUC3 (bladder)): < 4.30
pIC50 (cancer cell lines; Homo sapiens, UO-31, 72 h, UO31 (kidney)): 5.09
pIC50 (cancer cell lines; Homo sapiens, WSU-NHL, WSU-NHL (hematological)): 5.78
pIC50 (cancer cell lines; NCI-H358M, NCIH358M (lung)): 5.98
pIC50 (cancer cell lines; PBMC, PBMC (hematological)): 5.58
pIC50 (cancer cell lines; RD-ES, RDES (bone)): < 4.30
metabolism (deamination) by human CDA (line graph) ([1]; 12 nM CDA, 50 and 200 uM substrate, 37° C., pH 7.5, figure legends FIG. 4-9): not metabolized
substrate conversion by CDA (Inactive) ([1]; rate of substrate conversion at 200 μM, could not be fitted): Inactive
